Experimental findings from patent publication US10793553B2, “TLR7/8 antagonists and uses thereof” (Merck Patent GmbH, priority 2017, dated 2020) are described below.

Where a name gives a salt, the structure may show the parent alone.

Assay [1] deals with T1, TLR8 (Homo sapiens, UniProt Q9NR97).
T1 construct: expressed in transfected cells; host or cells: HEK cells carrying TLR8 and an NFkB luciferase reporter
T1 sequence (Q9NR97 27-1041): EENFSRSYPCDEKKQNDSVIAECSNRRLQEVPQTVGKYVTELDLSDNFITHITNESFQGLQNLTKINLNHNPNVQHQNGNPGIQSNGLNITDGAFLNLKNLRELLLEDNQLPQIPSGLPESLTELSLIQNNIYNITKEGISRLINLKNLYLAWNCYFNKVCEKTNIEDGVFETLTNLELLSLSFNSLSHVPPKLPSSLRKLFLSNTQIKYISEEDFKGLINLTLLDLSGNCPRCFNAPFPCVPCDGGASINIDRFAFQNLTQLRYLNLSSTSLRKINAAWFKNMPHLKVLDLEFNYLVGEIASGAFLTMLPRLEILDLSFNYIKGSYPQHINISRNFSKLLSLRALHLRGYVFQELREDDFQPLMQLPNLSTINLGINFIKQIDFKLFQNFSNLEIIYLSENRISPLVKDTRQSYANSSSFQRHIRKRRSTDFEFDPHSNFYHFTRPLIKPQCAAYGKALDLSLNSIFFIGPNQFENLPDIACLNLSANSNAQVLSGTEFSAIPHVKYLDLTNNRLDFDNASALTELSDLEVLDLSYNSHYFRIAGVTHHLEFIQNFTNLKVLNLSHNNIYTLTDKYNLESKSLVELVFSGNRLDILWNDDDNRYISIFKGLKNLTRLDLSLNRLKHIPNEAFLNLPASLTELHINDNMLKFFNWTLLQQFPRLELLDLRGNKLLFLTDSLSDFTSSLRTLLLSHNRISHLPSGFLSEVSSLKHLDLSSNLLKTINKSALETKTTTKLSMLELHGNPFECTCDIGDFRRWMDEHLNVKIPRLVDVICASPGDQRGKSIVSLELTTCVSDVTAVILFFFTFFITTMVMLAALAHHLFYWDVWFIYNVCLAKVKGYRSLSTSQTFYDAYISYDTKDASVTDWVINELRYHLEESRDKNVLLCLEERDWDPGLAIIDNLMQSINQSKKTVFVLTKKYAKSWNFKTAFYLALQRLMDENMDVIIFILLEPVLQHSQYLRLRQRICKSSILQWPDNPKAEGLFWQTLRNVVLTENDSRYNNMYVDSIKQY
Description: HEK TLR8 Cell Assay. The class given is cell-based. To be noted: TLR8/NFKb HEK cells, R848 agonist 30 uM final, Steady-Glo readout. On the procedure: Example 25: HEK TLR8 Cell Assay
(§1) Into 384 CulturePlates (Corning 3707) was placed 5000 c/w of TLR8/NFKb HEK cells in 30 uL DMEM without Phenol red (gibco #31053) and 10% FCS-HI, 2 mM L-Glutamine, 1% Pen/Strept. The cells are incubated for 24 h at 37 degrees Celsius, and 10% carbon dioxide. Dispense 3 uL of controls, standards, and compounds to wells, incubate for 30 min then add 3 uL of R848 (30 uM final concentration) agonist in 20 mM Hepes. Incubate for 5 hours and then allow to stand at room temperature for 15 min. Add 10 uL of Steady-Glo substrate reagent and shake assay plate for 5 min at 1500 rpm. Let the assay plate sit for 30 min at room temperature and then read plate on EnVision.

Assay [2] deals with T2, TLR7 (Homo sapiens, UniProt Q9NYK1).
T2 construct: expressed in transfected cells; host or cells: HEK cells carrying TLR7 and an NFkB luciferase reporter
T2 sequence (Q9NYK1 27-1049): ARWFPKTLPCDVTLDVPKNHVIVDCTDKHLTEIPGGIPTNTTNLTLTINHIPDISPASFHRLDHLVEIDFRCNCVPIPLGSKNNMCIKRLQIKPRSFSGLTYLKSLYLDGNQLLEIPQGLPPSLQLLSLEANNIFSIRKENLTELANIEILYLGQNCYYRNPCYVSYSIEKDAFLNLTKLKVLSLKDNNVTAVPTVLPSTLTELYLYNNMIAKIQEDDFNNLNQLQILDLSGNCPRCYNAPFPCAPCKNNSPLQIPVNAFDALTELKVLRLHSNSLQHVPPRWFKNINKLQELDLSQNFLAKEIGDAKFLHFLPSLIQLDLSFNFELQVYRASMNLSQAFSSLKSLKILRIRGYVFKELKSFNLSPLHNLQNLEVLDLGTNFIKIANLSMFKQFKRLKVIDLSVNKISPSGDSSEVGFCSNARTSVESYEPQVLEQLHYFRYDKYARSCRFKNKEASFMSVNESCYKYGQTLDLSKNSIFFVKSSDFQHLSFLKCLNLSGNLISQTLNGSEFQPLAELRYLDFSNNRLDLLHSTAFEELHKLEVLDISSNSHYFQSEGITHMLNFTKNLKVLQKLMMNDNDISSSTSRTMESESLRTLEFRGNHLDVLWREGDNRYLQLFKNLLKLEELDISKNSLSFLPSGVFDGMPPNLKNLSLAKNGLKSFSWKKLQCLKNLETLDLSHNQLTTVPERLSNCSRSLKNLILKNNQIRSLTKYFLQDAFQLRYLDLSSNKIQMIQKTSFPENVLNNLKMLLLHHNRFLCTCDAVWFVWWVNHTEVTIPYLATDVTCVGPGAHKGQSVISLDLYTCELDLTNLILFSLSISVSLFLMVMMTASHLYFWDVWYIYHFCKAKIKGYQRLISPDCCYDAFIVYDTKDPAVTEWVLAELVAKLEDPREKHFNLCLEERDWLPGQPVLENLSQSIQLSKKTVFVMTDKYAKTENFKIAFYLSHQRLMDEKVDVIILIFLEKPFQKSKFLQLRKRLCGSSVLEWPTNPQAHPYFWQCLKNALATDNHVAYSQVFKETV
Description: HEK TLR7 Cell Assay. The class given is cell-based. Conditions: TLR7/NFKb HEK cells, R848 agonist 10 uM final, Steady-Glo readout. On the procedure: Example 24: HEK TLR7 Cell Assay
as §1, with “TLR7/NFKb” for “TLR8/NFKb”, “(10” for “(30”

`Cc1ccc(N2C[C@@H](C)[C@@H](NC(=O)CC3CCN(C)CC3)C2)c2cccnc12` [Compound 34, N-[(3R,4R)-4-methyl-1-(8-methylquinolin-5-yl)pyrrolidin-3-yl]-2-(1-methylpiperidin-4-yl)acetamide]: the half-maximal inhibitory concentration (IC50) in assay [1] and in assay [2] was less than 1 µM in each case.

`Cc1ccc(N2C[C@@H](C)[C@@H](NC(=O)CN3CCOCC3)C2)c2cccnc12` [Compound 39, N-[(3R,4R)-4-methyl-1-(8-methylquinolin-5-yl)pyrrolidin-3-yl]-2-(morpholin-4-yl)acetamide]: the values for the IC50 in assay [1] and in assay [2] were greater than 10 µM and 1 to 10 µM, respectively.

On to `Cc1ccc(N2C[C@@H](C)[C@@H](NC(=O)CC3(C)CCN(C)CC3)C2)c2cccnc12` [Compound 40, 2-(1,4-dimethylpiperidin-4-yl)-N-[(3R,4R)-4-methyl-1-(8-methylquinolin-5-yl)pyrrolidin-3-yl]acetamide], for which the IC50 in assay [1] was 1 to 10 µM; in assay [2], less than 1 µM.

Consider `Cc1ccc(N2C[C@@H](C)[C@@H](NC(=O)CC3(F)CCNCC3)C2)c2cccnc12` [Compound 41, 2-(4-fluoropiperidin-4-yl)-N-[(3R,4R)-4-methyl-1-(8-methylquinolin-5-yl)pyrrolidin-3-yl]acetamide], for which the IC50 was 1 to 10 µM in assay [1] and less than 1 µM in assay [2].

Turning to `Cc1ccc(N2C[C@@H](C)[C@@H](NC(=O)CC3(F)CCN(C)CC3)C2)c2cccnc12` [Compound 42, 2-(4-fluoro-1-methylpiperidin-4-yl)-N-[(3R,4R)-4-methyl-1-(8-methylquinolin-5-yl)pyrrolidin-3-yl]acetamide], the IC50 in assay [1] and in assay [2] was less than 1 µM each time.

`Cc1ccc(N2C[C@@H](C)[C@@H](NC(=O)[C@@H](O)C(C)C)C2)c2cccnc12` [Compound 47, (2S)-2-hydroxy-3-methyl-N-[(3R,4R)-4-methyl-1-(8-methylquinolin-5-yl)pyrrolidin-3-yl]butanamide]: the IC50 is greater than 10 µM in assay [1] and 1 to 10 µM in assay [2].

In the case of `Cc1ccc(N2C[C@@H](C)[C@@H](NC(=O)[C@H](O)C(C)C)C2)c2cccnc12` [Compound 48, (2R)-2-hydroxy-3-methyl-N-[(3R,4R)-4-methyl-1-(8-methylquinolin-5-yl)pyrrolidin-3-yl]butanamide], the half-maximal inhibitory concentration (IC50) in assay [1] and in assay [2] was greater than 10 µM in each case.

Consider `Cc1ncc(N2C[C@@H](C)[C@@H](N)C2)c2cccnc12` [Compound 51, (3R,4R)-4-methyl-1-(8-methyl-[1,7]naphthyridin-5-yl)-pyrrolidin-3-ylamine hydrochloride], for which the values for the IC50 in assay [1] and in assay [2] were greater than 10 µM and 1 to 10 µM, respectively.

In the case of `Cc1ncc(N2C[C@@H](C)[C@@H](NC(=O)CC3CCN(C)CC3)C2)c2cccnc12` [Compound 52, N-[(3R,4R)-4-methyl-1-(8-methyl-[1,7]naphthyridin-5-yl)-pyrrolidin-3-yl]-2-(1-methyl-piperidin-4-yl)-acetamide], the IC50 in assay [1] is greater than 10 µM; in assay [2], less than 1 µM.

`Cc1ncc(N2C[C@@H](C)[C@@H](NC(=O)CC3CN(C)C3)C2)c2cccnc12` [Compound 53, 2-(1-methyl-azetidin-3-yl)-N-[(3R,4R)-4-methyl-1-(8-methyl-[1,7]naphthyridin-5-yl)-pyrrolidin-3-yl]-acetamide]: the IC50 was greater than 10 µM in assay [1] and 1 to 10 µM in assay [2].

For `CCN(CC)CCNC(=O)C1CCN(c2ccnc3nccnc23)C1` (centres unmarked) [Compound 54, 1-pyrido[2,3-b]pyrazin-8-yl-pyrrolidine-3-carboxylic acid (2-diethylamino-ethyl)-amide], the IC50 in assay [1] and in assay [2] was greater than 10 µM in each case.

As to `Cc1cc2c(N3CCC(CNCCN4CCCCC4)C3)ccnc2n1C` (centres unmarked) [Compound 55, [1-(1,2-Dimethyl-1H-pyrrolo[2,3-b]pyridin-4-yl)-pyrrolidin-3-ylmethyl]-(2-piperidin-1-yl-ethyl)-amine], the values for the IC50 in assay [1] and in assay [2] were greater than 10 µM and 1 to 10 µM, respectively.

Regarding `CC1CN(c2ccc(C#N)c3nccnc23)CC1N` (centres unmarked) [Compound 56, 8-(3-Amino-4-methyl-pyrrolidin-1-yl)-quinoxaline-5-carbonitrile hydrochloride], the IC50 in assay [1] and in assay [2] was less than 1 µM in each case.
